The source of these data is patent US9200046B2, “Reporter system for high throughput screening of compounds and uses thereof” (priority 2011, dated 2015).

This assay has as its target Nrf2-Keap1 complex (Homo sapiens, UniProt Q14145). Put plainly: cell-based. It counts as cell-based. The settings on record: for activation at 16 µM / activation at 32 µM: 3 h; for activation at 16 µM: read-out: Activation 100 nL; for activation at 32 µM: read-out: Activation 200 nL.
Where [1] appears, read: Table 2, 100 nL compound, screen run at 16 and 32 μM, 3 hr.
Setting [2] is: Table 2, 200 nL compound, screen run at 16 and 32 μM, 3 hr.
Setting [3] is: Table 1A, 100 nL compound, screen run at 16 and 32 μM, 3 hr.
[4] abbreviates: Table 1A, 200 nL compound, screen run at 16 and 32 μM, 3 hr.

Counter-ions that a name gives are not always drawn. Like-named read-outs stand apart in the source and are kept apart here.

Nrf2-Keap1 complex, sequence (Q14145 whole entry, one chain of several): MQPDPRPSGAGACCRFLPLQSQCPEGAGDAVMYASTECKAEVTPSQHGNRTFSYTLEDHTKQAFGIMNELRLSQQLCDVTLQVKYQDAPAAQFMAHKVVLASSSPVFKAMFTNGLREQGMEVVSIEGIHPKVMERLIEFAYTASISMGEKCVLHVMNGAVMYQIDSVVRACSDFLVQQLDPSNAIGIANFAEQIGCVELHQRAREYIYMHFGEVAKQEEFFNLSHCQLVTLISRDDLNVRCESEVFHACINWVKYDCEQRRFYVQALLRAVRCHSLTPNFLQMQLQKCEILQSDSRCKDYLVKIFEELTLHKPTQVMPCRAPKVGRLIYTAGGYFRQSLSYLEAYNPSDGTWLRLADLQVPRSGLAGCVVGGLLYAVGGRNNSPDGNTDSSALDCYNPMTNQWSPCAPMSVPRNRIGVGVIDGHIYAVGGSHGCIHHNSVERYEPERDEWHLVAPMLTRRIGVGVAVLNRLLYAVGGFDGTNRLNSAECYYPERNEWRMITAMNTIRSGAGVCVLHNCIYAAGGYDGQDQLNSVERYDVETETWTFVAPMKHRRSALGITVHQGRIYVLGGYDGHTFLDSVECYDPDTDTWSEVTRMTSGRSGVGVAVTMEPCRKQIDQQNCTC

Turning to `COc1cc(O)c(C(=O)/C=C/c2ccc(O)c(OC)c2)c(OC)c1` [2′,4-DIHYDROXY-3,4′,6′-TRIMETHOXYCHALCONE], the activation at 16 µM was found to be 655% and the activation at 32 µM amounted to 305%. The “100 nL (luminescence)” value under setting [1] is given as 6104. For the same molecule, the “200 nL (luminescence)” value under setting [2] amounted to 7512.
`COc1cc([C@@H]2c3cc4c(cc3[C@@H](O)[C@H]3COC(=O)[C@H]23)OCO4)cc(OC)c1O` [4′-DEMETHYLEPIPODOPHYLLOTOXIN]: the “100 nL (luminescence)” value under setting [3] is recorded as 3188. Besides, the “200 nL (luminescence)” value under setting [4] came out at 2844.
In the case of `CN1CCc2cccc3c2[C@H]1Cc1ccc(O)c(O)c1-3` [APOMORPHINEHYDROCHLORIDE, reference compound], the activation at 16 µM was 44% and the activation at 32 µM is -3%. Moreover, the “100 nL (luminescence)” value under setting [1] is 880. The “200 nL (luminescence)” value under setting [2] was found to be 266.
In the case of `COC(=O)C1=C(C)NC(C)=C(C(=O)OC)C1c1ccccc1[N+](=O)[O-]` [NIFEDIPINE, reference compound], the activation at 16 µM stood at 35% and the activation at 32 µM is -10%.
Turning to `COC(=O)[C@H](O)[C@H]1C(C)(C)[C@H](OC(C)=O)[C@@H]2CC3=C4CC(=O)O[C@@H](c5ccoc5)[C@]4(C)CC[C@@H]3[C@@]1(C)C2=O` [SWIETENOLIDE-3-ACETATE], the “Activation 100 nL” value is reported as 70% and the “Activation 200 nL” value is 115%. Besides, the “100 nL (luminescence)” value under setting [1] was 1430. Also, the “200 nL (luminescence)” value under setting [2] was determined as 2088.
On to `O=c1oc2cc(O)ccc2s1` [TIOXOLONE, reference compound], for which the activation at 16 µM came to 156% and the activation at 32 µM is 31%. Moreover, the “100 nL (luminescence)” value under setting [1] worked out at 3542. The “200 nL (luminescence)” value under setting [2] is reported as 768.
On to `O=C1OCCN1/N=C/c1ccc([N+](=O)[O-])o1` [FURAZOLIDONE, reference compound], for which the “100 nL (luminescence)” value worked out at 876, the “200 nL (luminescence)” value came to 1288, the activation at 16 µM is 43% and the activation at 32 µM came out at 45%.
With `C=C[C@@]1(C)CC(=O)[C@]2(O)[C@@]3(C)[C@@H](O)CCC(C)(C)[C@@H]3[C@H](O)[C@H](OC(C)=O)[C@@]2(C)O1` [COLFORSIN, reference compound], the activation at 16 µM came out at 91% and the activation at 32 µM worked out at 120%. In addition, the “100 nL (luminescence)” value under setting [1] came to 2208. In addition, under setting [2], the “200 nL (luminescence)” value is listed as 2568.
As to `O=C1CC(c2ccc(O)cc2)Oc2ccccc21` (stereo not shown) [4′-HYDROXYFLAVANONE], the activation at 16 µM is 158% and the activation at 32 µM is 75%. Moreover, under setting [1], the “100 nL (luminescence)” value came to 1752. Further, under setting [2], the “200 nL (luminescence)” value was determined as 2088.
The like results for `CC(C)=CCC[C@@H](C)[C@@H]1CC[C@]2(C)C3=C(CC[C@@]12C)[C@@]1(C)CC[C@H](O)C(C)(C)[C@@H]1CC3` [EUPHOL] were, in that order, 138%, 74%, 1572 and 2064.
In the same order, the values of `COc1cc(/C=C/C(=O)CC(=O)/C=C/c2ccc(O)c(OC)c2)ccc1O` [CURCUMIN] are 252%, -4%, 4208 and 264.
For the molecule `CNC(=O)Oc1cccc2c1OC(C)(C)O2` [BENDIOCARB], the “100 nL (luminescence)” value came to 1532, the “200 nL (luminescence)” value is listed as 2760, the activation at 16 µM came out at 87% and the activation at 32 µM was found to be 101%.
In the case of `O=c1c(O)c(-c2ccccc2)oc2ccccc12` [3-Hydroxyflavone], the “hit strength in the screen (words)” value is listed as “modest Nrf2 activator”.
As to `N.N.[Cl][Pt][Cl]` [CISPLATIN, reference compound], the “Activation 100 nL” value came to 36% and the “Activation 200 nL” value amounted to 90%. The “100 nL (luminescence)” value under setting [1] was 1100. Further, the “200 nL (luminescence)” value under setting [2] stood at 1496.
The like results for `C=C1CC[C@H]2O[C@]2(C)CC[C@@H]2[C@@H]1CC2(C)C` [CARYLOPHYLLENEOXIDE] were, in that order, 38%, 2%, 874 and 488.
As to `CC1(C)C(=O)C=C[C@]2(C)[C@H]3CC[C@@]4(C)[C@H](c5ccoc5)OC(=O)[C@H]5O[C@]54[C@]3(C)C=C[C@@H]12` [7-DESACETOXY-6,7-DEHYDROGEDUNIN], the “Activation 100 nL” value is listed as 85% and the “Activation 200 nL” value is −9%. For the same molecule, the “100 nL (luminescence)” value under setting [1] came out at 1660. Besides, the “200 nL (luminescence)” value under setting [2] is reported as 188.
On to `CC(=O)Oc1ccc(Cl)c2cccnc12` [CHLOROACETOXYQUINOLINE], for which the “Neh2-luc reporter activation” value was 60%, the activation at 16 µM stood at 60% and the activation at 32 µM came out at 37%.
Turning to `NCCc1cc(O)c(O)cc1O` [OXIDOPAMINEHYDROCHLORIDE], the activation at 16 µM is 107% and the activation at 32 µM stood at 124%. The “100 nL (luminescence)” value under setting [1] was 1676. Further, under setting [2], the “200 nL (luminescence)” value is 2936.
On to `C[C@@](Cc1ccc(O)c(O)c1)(NN)C(=O)O` [CARBIDOPA, reference compound], for which the activation at 16 µM was determined as 217% and the activation at 32 µM is 67%. In addition, under setting [1], the “100 nL (luminescence)” value was found to be 2262. The “200 nL (luminescence)” value under setting [2] amounted to 1900.
As to `CCCOc1ccc2nc(NC(=O)OC)[nH]c2c1` [OXIBENDAZOLE, reference compound], the activation at 16 µM amounted to 38% and the activation at 32 µM is 36%. For the same molecule, under setting [3], the “100 nL (luminescence)” value is on record as 1164. The “200 nL (luminescence)” value under setting [4] stood at 1064.
Turning to `O=C1OC(=O)[C@H]2[C@@H]1[C@@H]1CC[C@H]2O1` [NORCANTHARIDIN], the “Activation 100 nL” value turned out to be 45% and the “Activation 200 nL” value is 10%. In addition, the “100 nL (luminescence)” value under setting [1] is 756. In addition, under setting [2], the “200 nL (luminescence)” value is 572.
For `CC(C)c1ccc2c(c1)CC[C@H]1[C@](C)(C(N)=O)CCC[C@]21C` [DEHYDROABIETAMIDE], the activation at 16 µM turned out to be 66% and the activation at 32 µM worked out at 135%.
In the case of `CC1=C(CC(=O)O)c2cc(F)ccc2/C1=C\c1ccc([S+](C)[O-])cc1` (stereo not shown) [reference compound], the “Neh2-luc reporter activation” value turned out to be 200%, the activation at 16 µM turned out to be 114% and the activation at 32 µM amounted to 188%. Moreover, the “100 nL (luminescence)” value under setting [3] is recorded as 2692. Also, the “200 nL (luminescence)” value under setting [4] came to 2710.
With `O=[N+]([O-])c1cccc2c(Br)n[nH]c12` [3-BROMO-7-NITROINDAZOLE], the “hit strength in the screen (words)” value was “modest hits”, the activation at 16 µM was found to be 30% and the activation at 32 µM stood at 8%. Besides, the “100 nL (luminescence)” value under setting [3] was 632. The “200 nL (luminescence)” value under setting [4] worked out at 512.
`COc1cc(O)c(C(=O)/C=C/c2ccccc2)c(OC)c1` [FLAVOKAWAINB]: the activation at 16 µM stood at 144% and the activation at 32 µM is -21%. Further, the “100 nL (luminescence)” value under setting [1] came to 2564. For the same molecule, the “200 nL (luminescence)” value under setting [2] came out at 8.
In the same order, the values of `C[C@]12C=CC(=O)C=C1CC[C@@H]1[C@@H]2CC[C@]2(C)C(=O)CC[C@@H]12` [ANDROSTA-1,4-DIEN-3,17-DIONE] are 81%, 70%, 1444 and 2048.
The like results for `CO/N=C(\C(=O)N[C@@H]1C(=O)N2C(C(=O)O)=C(COC(C)=O)CS[C@H]12)c1csc(N)n1` [CEFOTAXIMESODIUM, reference compound] were, in that order, 50%, 7%, 968 and 488.
`CC(=O)O[C@H]1CC[C@]2(C)[C@H]3CC[C@@]4(C)[C@H](c5ccoc5)OC(=O)[C@H]5O[C@]54[C@]3(C)[C@H](OC(C)=O)C[C@H]2C1(C)C` [3beta-ACETOXYDEOXODIHYDROGEDUNIN]: the “Activation 100 nL” value was 37% and the “Activation 200 nL” value came to 42%. Besides, under setting [1], the “100 nL (luminescence)” value came to 924. Besides, the “200 nL (luminescence)” value under setting [2] was found to be 972.
As to `CN1CCN(CC/C=C2/c3ccccc3Sc3ccc(S(=O)(=O)N(C)C)cc32)CC1` [THIOTHIXENE, reference compound], the activation at 16 µM was 55% and the activation at 32 µM is -26%. In addition, the “100 nL (luminescence)” value under setting [1] came out at 1500. For the same molecule, the “200 nL (luminescence)” value under setting [2] is reported as 68.
Consider `COc1cc(OC)c2c(=O)c(O)c(-c3ccc(OC)c(OC)c3)oc2c1`, for which the “Activation 100 nL” value is recorded as 29% and the “Activation 200 nL” value came to 8%. The “100 nL (luminescence)” value under setting [1] came to 760. For the same molecule, the “200 nL (luminescence)” value under setting [2] was 644.
For `CC(C)=CCC1=C(O)C(=O)c2ccccc2C1=O` [LAPACHOL], the activation at 16 µM is 47% and the activation at 32 µM came to 24%.
With `O=C1c2cccc(O)c2C(=O)c2c(O)cccc21` [DANTRON, reference compound], the activation at 16 µM amounted to 29% and the activation at 32 µM is 29%. Moreover, the “100 nL (luminescence)” value under setting [1] was determined as 616. Under setting [2], the “200 nL (luminescence)” value came out at 1020.
Turning to `C=C(CC)C(=O)c1ccc(OCC(=O)O)c(Cl)c1Cl` [reference compound], the activation at 16 µM came out at 139% and the activation at 32 µM is 156%. Also, the “100 nL (luminescence)” value under setting [1] was found to be 2088. In addition, the “200 nL (luminescence)” value under setting [2] is given as 3604.
Take `CC1CCc2cc(F)cc3c(=O)c(C(=O)O)cn1c23` (stereo not shown) [FLUMEQUINE, reference compound]: the “100 nL (luminescence)” value is given as 1156, the “200 nL (luminescence)” value came to 368, the activation at 16 µM turned out to be 38% and the activation at 32 µM is -2%.
For the molecule `COc1cc([C@@H]2c3cc4c(cc3[C@H](OC(C)=O)[C@H]3COC(=O)[C@H]23)OCO4)cc(OC)c1OC` [PODOPHYLLOTOXINACETATE], the “Activation 100 nL” value came out at 40% and the “Activation 200 nL” value came to 10%. In addition, the “100 nL (luminescence)” value under setting [1] came to 900. The “200 nL (luminescence)” value under setting [2] stood at 668.
